Experiment in all cases: Colony formation (clonogenic) assay in methylcellulose after lentiviral IL1RAP shRNA knockdown
What all share (format): cell-based, human
Details in all cases: p<0.05

One data set concerns HEL cells. From the text:
(§1) FIG. 18A-18B. IL1RAP knockdown decreases clonogenic potential and leads to increased cell death of AML cells. A) Colony formation assay in semisolid methylcellulose media of AML cells (THP-1, OCI-AML3, HEL, HL-60) infected with control and two IL1RAP-directed shRNAs. Mean and standard deviations are shown. Asterisks indicate statistical significance (p<0.05). B) Analysis of apoptosis/necrosis with Annexin V/DAPI in THP-1 cells infected with control and IL1RAP shRNAs. […] Statistical significance is indicated (* indicate p<0.05).
(§2) For knockdown studies, shRNA template oligonucleotides (Luciferase Control shRNA: 5′-[…]-3′ (SEQ ID NO:3); IL-1RAP shRNA 1: 5′-[…]-3′ (SEQ ID NO:4); IL-1RAP shRNA 2: 5′-[…]-3′) (SEQ ID NO:5) were cloned into the pSIH1-H1-copGFP shRNA vector system (System Biosciences, Mountain View, Calif.). For production of lentiviral particles, lentiviral constructs with packaging vectors were transfected into 293T producer cells using Fugene HD transfection reagent (Roche). Supernatant was harvested after 48 and 72 hours, and concentrated by ultracentrifugation. For knockdown studies, HL60, HEL, OCI-AML3, MOLM-13, THP1 and UT-7 cell lines were transfected with the short-hairpin-containing lentivirus (MOI=10), incubated for 48 or 72 hours. After culture with fresh medium, GFP-positive cells were sorted using a FACS Aria II sorter (BD Biosciences) and used for experiments. Level of knockdown of Il-1RAP was determined by flow cytometry.
(§3) THP1 cells were transduced with these lentiviral shRNAs or with a non-silencing control, and subjected sorted GFP-positive, Annexin V-negative, DAPI-negative cells to clonogenic assays. Knockdown of IL1RAP led to a significant (p<0.05) 94% and 98% inhibition of leukemic colony formation of THP1 cells in comparison to the non-silencing control (FIG. 18A).

The subject of a further data set is HL-60 cells.
Excerpt: as §1, §2, §3

The subject of a further data set is OCI-AML3 cells.
Excerpt: as §1, §2, §3

As for “shRNA#1: IL1RAP-directed lentiviral shRNA, template 5′-tggccttactctgatctggtattggacta-3′ (SEQ ID NO:4), in pSIH1-H1-copGFP vector (DNA TGGCCTTACTCTGATCTGGTATTGGACTA)”, the reduced clonogenicity in the data set on HEL cells was determined as 69%; with HL-60 cells, 45%; in the data set on OCI-AML3 cells, 51.5%.

As for “shRNA#2: IL1RAP-directed lentiviral shRNA, template 5′-cgggcattaattgatttcctactatattc-3′ (SEQ ID NO:5), in pSIH1-H1-copGFP vector (DNA CGGGCATTAATTGATTTCCTACTATATTC)”, the reduced clonogenicity with HEL cells was found to be 81%; in the data set on HL-60 cells, 38.5%; with OCI-AML3 cells it was 62%.

The values above are taken from US9873918B2, “Treatment of acute myeloid leukemia and myelodysplastic syndromes” (Albert Einstein College of Medicine, Inc., priority 2011, dated 2018).
